What was measured:
[1] = tested on: Jurkat cells; test: calcium signal (Fluo-4) of Jurkat cells after stimulation in open microwells; format: cell-based, human; settings: Fluo-4 fluorescence, OKT3 10 μg/mL, average of a series of 3 experiments
Procedure: Cells from the Jurkat cell line (human Leukemic T cells) were obtained from ATCC and cultured in RPMI 1640 medium supplemented with 10% inactivated FBS medium, 10 mM Hepes, 2 mM Ultraglutamine and 1 mM sodium pyruvate, 1% Penicillin/Streptomycin in 25 cm^2 flasks at 37° C. and 5% CO2.
The OKT3 hybridomas were cultured in bioreactors (CellLine, Integra Biosciences) in complete RPMI 1640 medium containing 3% FBS and the supernatant was collected 2 times a week. The purification of monoclonal antibodies was performed using a double saturated ammonium sulfate precipitation at 30% and 50%, followed by dialysis in PBS. The purity of OKT3 was assessed by SDS-PAGE gel and the amount of antibody was determined through NanoDrop (Thermo Scientific). The antibody was then frozen at −80° C. before use.
For the assay in open microwells according to the present invention, Jurkat cells were labeled with Fluo-4 20 μM in HBSS, centrifuged and resuspended in serum-free medium (RPMI 1640 with 25 mM Hepes or HBSS) at a concentration of 1.6×10^6 cells/mL in 1.5 mL Eppendorf tubes used as input reservoirs for the open reversed microwell system. […] The images were acquired by a camera connected to the microscope at a distance of 1 minute and processed by software developed in LabView, quantifying the dynamic performance of the same signal on each sample cell.

[2] = tested on: SU-DHL-4 cancer cells; test: open well assay of Rituximab on SU-DHL-4 lymphoma cells (Calcein-AM / PI, time-lapse); format: cell-based; settings: Rituximab 10 μg/mL, human serum 1%, PI 5 μM; versus CTRL; FIG. 11A
Procedure: Cells: SU-DHL-4 lymphoma cells and Raji cells were used (ATCC CCL-86). 3·10^5 cells/mL were cultured in RPMI medium supplemented with 10% FBS, 1% […]/streptomycin at 37° C., 95% RH, 5% CO2. The cells were amplified, dividing them when in confluence. PBMC were isolated from blood by centrifugation in gradient. Whole blood from healthy donors was collected into tubes treated with anticoagulants according to the directive “ethical principles and guidelines for the protection of humans in research”. Isolated PBMC were washed twice with 10 mL cold HBSS after lysis of red blood cells. The concentration of cells and their viability was determined with Trypan Blue on haemocytometer. The concentration was adjusted to 1 million cells/mL.
Different batches of SU-DHL-4 or Raji cells were harvested at the peak of their growth, washed with PBS and counted in a hemocytometer with Trypan Blue. The cell concentration was adjusted to 1 million cells/mL and they were labeled with Calcein AM (CAM) 5 nM for flow cytometry and 250 nM for the assay according to the present invention. […] Cell viability was finally assessed by PI and flow cytometry. […]
The images were acquired in brightfield (BF) to evaluate the morphological characteristics and then in fluorescence to evaluate the signal in DAPI bands (ex: 360/40 nm, em: 460/50 nm), FITC (ex: 480/30 nm, em: 535/40 nm), TRITC (ex: 540/25 nm, em: 605/55 nm). […]

Row | Substance | increase of the signal peak, compared to the baseline value [1] [%+/−90%] | dead cells (PI, TRITC channel) in time-lapse images [2]
1 | OKT3: monoclonal antibody purified from OKT3 hybridoma supernatant | 178 | 
2 | RTX: monoclonal antibody Rituximab |  | present only at T2 and T3 in the RTX group
